# PubChem BioAssay (NCI)
#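 Tested at 5 concentrations; 48 h exposure; 96-well plates; endpoints linearly interpolated, else capped at highest concentration. Here, GI50 denotes the concentration required for 50% inhibition of growth. TGI denotes the concentration required for complete inhibition of growth.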
# How the values were obtained:
# Assay in all cases: NCI tumour cell line growth inhibition, 48 h
# A549 NSCLC = system: A549 NSCLC
# IGROV1 ovarian = system: IGROV1 ovarian
# PC-3 prostate = system: PC-3 prostate
# HOP-62 NSCLC = system: HOP-62 NSCLC
# 786-0 renal = system: 786-0 renal
# MDA-MB-231 breast = system: MDA-MB-231 breast
# T-47D breast = system: T-47D breast
# SK-MEL-2 melanoma = system: SK-MEL-2 melanoma
# NCI-H226 lung = system: NCI-H226 lung
# OVCAR-5 ovarian = system: OVCAR-5 ovarian
SMILES,TGI (A549 NSCLC),TGI (IGROV1 ovarian),TGI (PC-3 prostate),TGI (HOP-62 NSCLC),TGI (786-0 renal),TGI (MDA-MB-231 breast),TGI (T-47D breast),TGI (SK-MEL-2 melanoma),TGI (NCI-H226 lung),TGI (OVCAR-5 ovarian),GI50 (A549 NSCLC),GI50 (IGROV1 ovarian),GI50 (PC-3 prostate),GI50 (HOP-62 NSCLC),GI50 (786-0 renal),GI50 (MDA-MB-231 breast),GI50 (T-47D breast),GI50 (SK-MEL-2 melanoma),GI50 (NCI-H226 lung),GI50 (OVCAR-5 ovarian)
CNC1C(O)C(OC2C(N)CC(N)C(OC3OC(C(C)O)C(O)C(O)C3N)C2O)OCC1(C)O (centres undefined),> 100 µM,> 100 µM,> 100 µM,> 100 µM,> 100 µM,> 100 µM,> 100 µM,> 100 µM,> 100 µM,> 100 µM,–,–,–,–,–,–,–,–,–,–
COc1ccc(C(=O)/C=C/c2ccc(OCC(=O)N3CCN(c4ccccc4)CC3)cc2)cc1,> 100 µM,> 65.8 µM,> 100 µM,> 79.6 µM,> 77.3 µM,> 53.2 µM,> 100 µM,> 100 µM,> 100 µM,> 100 µM,–,–,–,–,–,–,–,–,–,–
C#Cc1cccc(Nc2nc3ccc([N+](=O)[O-])cc3nc2Nc2cccc(C#C)c2)c1,1.12 µM,1.3 µM,1.17 µM,0.476 µM,0.73 µM,0.807 µM,0.889 µM,0.742 µM,1.2 µM,1.35 µM,0.212 µM,0.354 µM,0.22 µM,0.188 µM,0.226 µM,0.281 µM,0.259 µM,0.26 µM,0.251 µM,0.338 µM
Cc1cc(C)nc(SC2=C(Nc3cccc(Cl)c3C)C(=O)N(Cc3ccccc3)C2=O)n1,> 160 µM,> 160 µM,> 160 µM,> 160 µM,> 160 µM,> 160 µM,> 160 µM,> 160 µM,> 160 µM,> 160 µM,> 160 µM,> 160 µM,> 160 µM,> 160 µM,> 160 µM,> 160 µM,> 160 µM,> 160 µM,> 160 µM,> 160 µM
CS(=O)(=O)CCNCc1ccc(-c2ccc3ncnc(Nc4ccc(OCc5ccccc5)c(Cl)c4)c3c2)o1,> 25 µM,> 21.4 µM,24.2 µM,> 20.3 µM,8.58 µM,9.31 µM,12.9 µM,9.71 µM,> 22.9 µM,18.8 µM,7.18 µM,2.8 µM,7.41 µM,6.83 µM,4.06 µM,4.3 µM,1.1 µM,4.62 µM,4.74 µM,3.61 µM
COc1ccc(-c2csc(-c3cc(Cl)cc(Cl)c3Cl)n2)cc1,> 100 µM,> 100 µM,> 100 µM,> 100 µM,> 100 µM,> 100 µM,> 100 µM,> 100 µM,> 100 µM,> 100 µM,68.3 µM,56.8 µM,52.2 µM,> 100 µM,> 100 µM,60 µM,40.3 µM,> 100 µM,78 µM,> 100 µM
COc1ccc(-c2c(-c3cc(OC)c4c(c3)OCO4)noc2N)cc1,> 100 µM,> 100 µM,60.1 µM,37.1 µM,24.1 µM,16.9 µM,47.1 µM,21.5 µM,4.07 µM,99.3 µM,0.0663 µM,0.093 µM,0.0436 µM,0.0345 µM,0.0845 µM,0.181 µM,0.0422 µM,0.0324 µM,0.0883 µM,0.339 µM
C[C@H]1C(Oc2ccc(O)cc2)OC2OC3(C)CCC4[C@H](C)CCC1C24OO3 (some centres undefined),30.6 µM,32.5 µM,14.8 µM,51.5 µM,27.2 µM,30.9 µM,26.9 µM,23 µM,31.2 µM,25.9 µM,12.2 µM,16.7 µM,0.251 µM,21.8 µM,10.7 µM,15.8 µM,2.1 µM,7.1 µM,15.9 µM,10.4 µM
N[C@@H]1CCCN(c2c(/C=C3\SC(=O)NC3=O)cccc2-c2ccccc2)C1,31.8 µM,35.1 µM,25.2 µM,25.5 µM,29.8 µM,23.1 µM,28.8 µM,30.3 µM,36.9 µM,23.4 µM,13.6 µM,17.2 µM,10.2 µM,11.7 µM,15.4 µM,7.77 µM,11.2 µM,15.2 µM,12.8 µM,10.5 µM
O=C(OCc1ccc2c(Cl)cc(Cl)c(O)c2n1)c1cc2ccccc2[nH]1,4.01 µM,0.5 µM,0.936 µM,3.81 µM,0.833 µM,1.52 µM,4.35 µM,3.25 µM,3.07 µM,1.97 µM,1.75 µM,0.219 µM,0.407 µM,1.63 µM,0.275 µM,0.422 µM,1.49 µM,1.47 µM,1.48 µM,0.65 µM
Cc1nc2n(c(=O)c1CCN1CCC(c3noc4cc(F)ccc34)CC1)CCCC2,> 50 µM,> 50 µM,> 50 µM,> 50 µM,> 50 µM,> 50 µM,> 50 µM,> 50 µM,> 50 µM,> 50 µM,> 50 µM,> 50 µM,> 50 µM,> 50 µM,> 50 µM,> 50 µM,> 50 µM,> 50 µM,> 50 µM,> 50 µM
CCCCCCCC(=O)SCC/C=C/[C@@H]1CC(=O)NCc2nc(co2)C2=N[C@@](C)(CS2)C(=O)N[C@@H](C(C)C)C(=O)O1,1.91 µM,0.163 µM,> 50 µM,–,> 50 µM,8.13 µM,0.201 µM,0.331 µM,2.37 µM,> 50 µM,0.0184 µM,0.0114 µM,0.0142 µM,0.0169 µM,0.0456 µM,0.054 µM,0.0312 µM,0.0132 µM,0.0861 µM,0.00849 µM
COc1ccc(C(=O)c2cc3c(N)c(C(=O)Nc4cccc(Cl)c4C)sc3nc2C)cc1,> 25 µM,> 25 µM,> 25 µM,> 25 µM,> 25 µM,> 25 µM,> 25 µM,> 25 µM,> 25 µM,> 25 µM,0.136 µM,0.145 µM,0.122 µM,0.154 µM,0.187 µM,0.142 µM,0.153 µM,0.215 µM,0.277 µM,0.266 µM
